Measurements reported in patent US20220289679A1, “HETEROCYCLIC COMPOUND” (Takeda Pharmaceutical Company Limited, priority 2019, published 2022).

Molecular target: T1, human GCS (glucosylceramide synthase) (Homo sapiens, UniProt Q16739)
T1 construct: made in house; host or cells: Expi293F cells (transient expression; microsome fraction)
T1 sequence (Q16739 1-394): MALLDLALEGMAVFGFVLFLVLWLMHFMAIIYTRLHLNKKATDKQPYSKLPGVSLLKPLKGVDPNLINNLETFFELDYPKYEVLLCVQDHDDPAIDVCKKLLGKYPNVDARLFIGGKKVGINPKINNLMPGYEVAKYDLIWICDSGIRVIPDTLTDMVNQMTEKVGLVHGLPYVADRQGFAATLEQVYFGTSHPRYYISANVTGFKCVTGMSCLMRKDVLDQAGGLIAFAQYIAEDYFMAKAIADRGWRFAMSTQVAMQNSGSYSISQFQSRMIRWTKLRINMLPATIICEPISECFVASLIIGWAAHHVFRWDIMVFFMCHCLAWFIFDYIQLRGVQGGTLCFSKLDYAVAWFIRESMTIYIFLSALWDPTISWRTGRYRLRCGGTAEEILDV
Assay: Glucosylceramide Synthase (GCS) Assay
Assay type: biochemical
Settings: test compound 10 μM; microsome fraction of Expi293F cells expressing human GCS; 1.7 μM UDP-glucose, 3 μM C8 ceramide; room temperature 60 min; C8 glucosylceramide by Rapidfire MS/MS; read-out: GCS enzyme inhibitory rate at 10 μM (%)
How it was run: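 Test compounds were run at a final 10 μM against liposomal C8 ceramide (3 μM) and UDP-glucose at its Km (1.7 μM). Human GCS came as microsomes from transfected Expi293F cells, incubated 60 min at room temperature, pH 7.5. Product measured by RapidFire MS/MS; 0% and 100% inhibition were DMSO and no-enzyme wells.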

| Structure (SMILES) | inhibition at 10 µM [%] |
| --- | --- |
| CC(C)(C#N)c1ccc(NC(=O)c2cn(C3COC3)nc(-c3ccccc3OCC(F)F)c2=O)cc1 [Example 191, N-[4-(2-cyanopropan-2-yl)phenyl]-6-[2-(2,2-difluoroethoxy)phenyl]-2-(oxetan-3-yl)-5-oxo-2,5-dihydropyridazine-4-carboxamide] | 100 |
| CC(C)(C#N)c1ccc(NC(=O)c2cn(C3CC3)nc(-c3ccccc3OCC(F)F)c2=O)cc1 [Example 192, N-[4-(2-cyanopropan-2-yl)phenyl]-2-cyclopropyl-6-[2-(2,2-difluoroethoxy)phenyl]-5-oxo-2,5-dihydropyridazine-4-carboxamide] | 100 |
| CCOC(=O)c1ccc(NC(=O)c2cc(C)nn(-c3ccccc3OCC(F)F)c2=O)cc1 [Example 194, ethyl 4-({2-[2-(2,2-difluoroethoxy)phenyl]-6-methyl-3-oxo-2,3-dihydropyridazine-4-carbonyl}amino)benzoate] | 97 |
| CC(=O)c1cc(C(=O)Nc2ccc(OC(F)F)cc2)c(=O)n(-c2ccccc2OCC(F)(F)F)n1 [Example 197, 6-acetyl-N-[4-(difluoromethoxy)phenyl]-3-oxo-2-[2-(2,2,2-trifluoroethoxy)phenyl]-2,3-dihydropyridazine-4-carboxamide] | 99 |
| CCOC(=O)c1cc(C(=O)Nc2ccc(OC(F)F)cc2)c(=O)n(-c2ccccc2OCC(F)(F)F)n1 [Example 198, ethyl 5-{[4-(difluoromethoxy)phenyl]carbamoyl}-6-oxo-1-[2-(2,2,2-trifluoroethoxy)phenyl]-1,6-dihydropyridazine-3-carboxylate] | 98 |
| CC(C)(O)c1cc(C(=O)Nc2ccc(OC(F)F)cc2)c(=O)n(-c2ccccc2OCC(F)(F)F)n1 [Example 200, N-[4-(difluoromethoxy)phenyl]-6-(2-hydroxypropan-2-yl)-3-oxo-2-[2-(2,2,2-trifluoroethoxy)phenyl]-2,3-dihydropyridazine-4-carboxamide] | 99 |
| CC(C)(O)c1cc(C(=O)Nc2ccc(C(C)(C)C#N)cc2)c(=O)n(-c2ccccc2OCC(F)(F)F)n1 [Example 201, N-[4-(2-cyanopropan-2-yl)phenyl]-6-(2-hydroxypropan-2-yl)-3-oxo-2-[2-(2,2,2-trifluoroethoxy)phenyl]-2,3-dihydropyridazine-4-carboxamide] | 100 |
| CC(C)(O)c1ccc(NC(=O)c2cc(C(C)(C)O)nn(-c3ccccc3OCC(F)(F)F)c2=O)cc1 [Example 202, 6-(2-hydroxypropan-2-yl)-N-[4-(2-hydroxypropan-2-yl)phenyl]-3-oxo-2-[2-(2,2,2-trifluoroethoxy)phenyl]-2,3-dihydropyridazine-4-carboxamide] | 99 |
| C=C(C)c1ccc(NC(=O)c2cc(C(C)(C)O)nn(-c3ccccc3OCC(F)(F)F)c2=O)cc1 [Example 203, 6-(2-hydroxypropan-2-yl)-3-oxo-N-[4-(prop-1-en-2-yl)phenyl]-2-[2-(2,2,2-trifluoroethoxy)phenyl]-2,3-dihydropyridazine-4-carboxamide] | 99 |
